Source: patent publication US20190038714A1, “ANTI-INFLAMMATORY COMPOSITION COMPRISING CLAVASPIRIN PEPTIDE ANALOGUE AS EFFECTIVE INGREDIENT” (INDUSTRY-ACADEMIC COOPERATION FOUNDATION, CHOSUN UNIVERSITY, priority 2015, published 2019)
Ends that are not written are not given here.

Key:
[1] = Cytotoxicity in normal cell line (MTT); assay type: cell-based, human; conditions: human, HaCaT cells (keratinocyte cell line), HaCaT, 24 hours, MTT, read-out: Cell survival ability %; for viability at 24 h, 25 µM: peptide 25 μM; for viability at 24 h, 50 µM: peptide 50 μM; for viability at 24 h, 100 µM: peptide 100 μM; for viability at 24 h, 200 µM: peptide 200 μM; for viability at 24 h, 400 µM: peptide 400 μM
Method: (§1) To determine the cytotoxicity of the peptide produced by the method of Example 1 in normal cell line, toxicity was measured by using human keratinocyte forming cell line (HaCaT cell line, Dr. NE. Fusenig, Heidelberg, Germany).
(§2) Specifically, HaCaT cells which have been cultured in DMEM medium containing 10% FBS (Fetal Bovine Serum) were aliquoted in a 96-well plate (3×10^3 cells/well). […] After the culture, a reaction solution containing 5 mg/ml MTT (Thiazolyl Blue Tetrazolium Bromide) dissolved in physiological saline (PBS) was added in an amount of 20 μl to each well and allowed to react for 4 hours. After that, the supernatant was removed, and, by dissolving the formed MTT crystals by adding 200 μl of DMSO, the absorbance at 560 nm was measured to determine the cell survival ability.

S. aureus = conditions: 24 hours at 37° C.
S. aureus MRSA 4761 = conditions: 24 hours at 37° C.
HaCaT cell line = assay: Cytotoxicity in normal cell line (MTT); assay type: cell-based, human; conditions: HaCaT cell line
Method: as §1, §2

skin of a hairless mouse = assay: Scanning electron microscopy of hairless mouse skin with induced dermatitis; assay type: in vivo; conditions: 200 μg/ml
Method: Skin of a 6-week old hairless mouse was treated with 100 μl of S. aureus MRSA 0027 (1×10^8 cells/ml) to induce inflammation. Thirty minutes later, the skin was further treated with CSP-4 peptide at 100 μg/ml or 200 μg/ml. From each of a mouse having induced inflammation further treated with the peptide, a mouse treated only with the peptide, and a mouse having induced inflammation, tissues were collected and washed using physiological saline (PBS). Then, the tissues were fixed for 24 hours at room temperature by using 4% PFA (paraformaldehyde). […] According to H&E staining and immunohistochemical method, a change in tissues and onset of an anti-inflammatory cytokine or TLR2 receptor was determined. […] Remaining liquids were removed by TBST buffer such that the tissues are not detached, and a secondary antibody linked with green fluorescence (Got anti-mouse IgG (HRP) LF-SA5001-conjugated) was allowed to bind thereto. Next, each tissue was determined by using a fluorescent microscope (I×71, Olympus, Japan).
From the mouse tissues which have been treated according to the method of above Example 8, a paraffin block was prepared. […] Next, a change in the tissues was determined by using scanning electron microscopy (SEM).

Row | Substance | viability at 24 h, 25 µM [1] | viability at 24 h, 50 µM [1] | viability at 24 h, 100 µM [1] | viability at 24 h, 200 µM [1] | viability at 24 h, 400 µM [1] | MIC (S. aureus) | MIC (S. aureus MRSA 4761) | cytotoxicity in human keratinocyte forming cell line (HaCaT cell line) | change in mouse skin (SEM), treated only with the peptide (skin of a hairless mouse)
1 | FLRFIGSVIHGIGHLVHHIGVAL-NH2 [Clavaspirin] | 15% | 3% | 1% | 1% | 0% | 16 µM | 32 µM |  | 
2 | FLRFIGSVKHGKGHLVHHIGVAL-NH2 [CSP-4] | 100% | 100% | 100% | 100% | 88% | 8 µM | 8 µM | almost no cytotoxicity | no change in mouse skin is induced
